From US11149005B2, “Organic amine ester derivative drug of 2-(α-hydroxypentyl)benzoic acid” (YAOPHARMA CO., LTD., priority 2018, dated 2021)
≈ marks a conversion by molar mass, not a printed value. Read-outs that look alike come from different tables or passages of the source.

Experiments:
[1] = Solubility in pH 1.0, 4.5, 6.8 buffer solutions and pure water (supersaturated solution, 37° C., HPLC); format: physicochemical; conditions: for solubility: ultrapure water, thermodynamic from solid, 37° C. water bath overnight, read-out: apparent solubility in pure water
Protocol: 1. The experiment process A pH 1.0 HCl solution, a pH 4.5 acetate buffer solution, a pH 6.8 phosphate buffer solution and 5 mL of ultrapure water are added into graduated test tubes having stoppers. Small amounts of the test samples (butyphthalide (NBP), DB-1 hydrochloride or DB-2 hydrochloride) are weighed and added in batches. After each batch of the adding, intense shaking is performed for 30 seconds (ultrasound is prohibited), the dissolving is observed at any time, and when the test samples are add so that turbid insoluble particles or liquid drops can be seen, finally proper amounts of the test samples are added. The system is placed into a 37° C. water bath and vibrated overnight, to form a supersaturated solution. The supersaturated solution is centrifuged or filtered (the adsorption should be noticed), and 100 μL is fed into HPLC to measure the concentrations of the tested medicines.

[2] = Assessment on the brain targeting ability (Re, Ce, DTI relative to NBP, DAS3.2.5); format: in vivo, Kunming mice; conditions: mice
Protocol: (§1) 90 Kunming mice (male; 20±2 g) are randomly grouped into three groups, with 30 mice in each of the groups. The first group is the butyphthalide group, is divided into 6 subgroups (5 mice in each of the subgroups), and is administered with butyphthalide by 10 mg/kg. The secondary group is the DB-1 group, is divided into 6 subgroups (5 mice in each of the subgroups), and is administered with DB-1 of the equal moles to the butyphthalide. The third group is the DB-2 group, is divided into 6 subgroups (5 mice in each of the subgroups), and is administered with DB-2 of the equal moles to the butyphthalide. Before the experiment the mice are fasted and are free to drink water. At 5 min, 15 min, 30 min, 1 h, 2 h and 4 h, all of the groups are taken blood at the orbit and then executed, and the hearts, livers, spleens, lungs, kidneys and brains of the mice are immediately separated, washed by using normal saline, dried by using filter paper, weighed, added normal saline of a certain multiple, homogenized, placed into a −40° C. refrigerator, and refrigerated for use. The whole blood is centrifuged at 4500 r/min for 5 min, and the plasma is sucked and placed into a −40° C. refrigerator for use. The stored tissue homogenates are thawed, and 0.1 mL of each of the tissue homogenates is placed into a 0.5 mL EP tube, and added 0.2 mL of acetonitrile protein for precipitation. The precipitate is treated by vortex shocking for 5 minutes, and centrifuged at 10000 rpm for 10 min, and […] of the supernatant is fed into an LC-MS/MS system, for measuring the concentrations of the tested medicines.
The pharmacokinetic parameters are calculated by using the DAS3.2.5 software. Regarding the quantitative assessment on the brain targeting ability of the sodium salt of 2-(α-hydroxypentyl)benzoic acid (NBP), DB-1 hydrochloride and DB-2 hydrochloride, the following parameters are employed: relative uptake ratio (Rebrain), peak concentration ratio (Cebrain) and drug targeting index (DTIbrain), the calculating formulas of which are respectively: Re(brain, DB-1)=(AUCbrain)DB-1/(AUCbrain)NBP CeDB-1=(Cmax,brain)DB-1/(Cmax,brain)NBP DTIDB-1=(AUCbrain/AUCplasma)DB-1/(AUCbrain/AUCplasma)NBP Re(brain, DB-2)=(AUCbrain)DB-2/(AUCbrain)NBP CeDB-2=(Cmax,brain)DB-2/(Cmax,brain)NBP DTIDB-2=(AUCbrain/AUCplasma)DB-2/(AUCbrain/AUCplasma)NBP
The calculation results of the parameters can be seen in Table 2. Regarding DB-1, the brain relative uptake ratio Re is 3.64, the peak concentration ratio Ce is 2.93, and the drug targeting index DTI is 12.45. Regarding DB-2, the brain relative uptake ratio Re is 4.27, the peak concentration ratio Ce is 3.19, and the drug targeting index DTI is 18.08.

[3] = Pharmacokinetics in mice: blood concentration versus time (LC-MS/MS); format: in vivo, Kunming mice; conditions: 10 mg/kg butyphthalide or equal moles; for concentration at 5 min / concentration at 1 h: male, Kunming, mouse, plasma
Protocol: (§2) 1. Animal Grouping and Dosage Regimen
as §1

[4] = In-vivo tissue distribution in mice (heart, liver, spleen, lung, kidney, brain); set-up: species or system Kunming mice; conditions: for contents in the brain compared with the sodium salt of 2-(α-hydroxypentyl)benzoic acid (NBP): all detection time points
Protocol: as §2, §1

[5] = Hygroscopicity: moisture absorption/weight gaining percentage at 25° C., relative humidity 75%; format: physicochemical
Protocol: 1. The Experiment Process
Three samples of each of the sodium salt of 2-(α-hydroxypentyl)benzoic acid, DB-1 and DB-2 are precisely weighed with approximately 0.2 g for each sample, and placed into weighing bottles, and the total masses of each of the samples and its weighing bottle are weighed and recorded. Then the weighing bottles are placed in a closed environment at 25° C. and at a constant humidity with the relative humidity of 75%, their masses are weighed at 6 h, 12 h, 24 h, 48 h, 96 h and 120 h, and the moisture absorption/weight gaining percentages are calculated. The moisture absorption/weight gaining percentages are calculated by using the formula as follows: moisture absorption/weight gaining percentage (%)=(sample mass after dilution—sample mass before dilution)/sample mass before dilution*100%.

[6] = 5 min after intravenous administration
[7] = 1 h after intravenous administration
[8] = pH 1.0 HCl, pH 4.5 acetate, pH 6.8 phosphate buffer, pure water

SMILES | brain relative uptake ratio Re (AUCbrain of compound / AUCbrain of NBP) [2] | drug targeting index DTI ((AUCbrain/AUCplasma) of compound / (AUCbrain/AUCplasma) of NBP) [2] | peak concentration ratio Ce (Cmax,brain of compound / Cmax,brain of NBP) [2] | concentration at 5 min [3, 6] | concentration at 1 h [3, 7] | influence of pH on solubility [1, 8] | solubility class in words ([1]; pure water) | solubility ([1]; pure water) | permeation of the blood-brain barrier [4] | contents in the brain compared with the sodium salt of 2-(α-hydroxypentyl)benzoic acid (NBP) [4] | moisture absorption/weight gaining percentage ([5]; 6 h) | moisture absorption/weight gaining percentage ([5]; 12 h) | moisture absorption/weight gaining percentage ([5]; 24 h) | moisture absorption/weight gaining percentage ([5]; 48 h) | moisture absorption/weight gaining percentage ([5]; 96 h) | moisture absorption/weight gaining percentage ([5]; 120 h) | further results
CCCCC1OC(=O)c2ccccc21 (racemic) [Butyphthalide (NBP), dl-3-n-butylphthalide, reference compound] | – | – | – | – | – | – | – | – | – | – | – | – | – | – | – | – | apparent solubility in pure water [1]: 0.0734 ± 0.0123 mg/mL; influence of pH on solubility [1]: not obvious; solubility class in words [1]: insoluble medicine
CCCCC(OC(C)=O)c1ccccc1C(=O)OCCN(C)C (stereo not shown) [DB-1] | 3.64 | 12.45 | 2.93 | 8.68 ± 1.48 µM | 2.98 ± 0.534 µM | highest in the pH 1.0 HCl solution | soluble medicines | 20 ± 2.98 mg/mL (≈ 62.3 mM) | can also permeate the blood-brain barrier and enter the brain | significant greater | 0.42% | 0.65% | 0.88% | 0.93% | 0.97% | 1.03% | moisture absorption/weight gaining percentage ([5]; 120 h, listed as DB-1 hydrochloride): 1.03±0.07%
CCCCC(OC(C)=O)c1ccccc1C(=O)OCCN1CCCCC1 (stereo not shown) [DB-2] | 4.27 | 18.08 | 3.19 | 6.29 ± 1.2 µM | 1.45 ± 0.657 µM | highest in the pH 1.0 HCl solution | soluble medicines | 11.7 ± 1.89 mg/mL (≈ 32.2 mM) | can also permeate the blood-brain barrier and enter the brain | significant greater | 0.38% | 0.54% | 0.65% | 0.71% | 0.72% | 0.76% | accumulated concentration in the brain compared with DB-1 hydrochloride [4]: greater; moisture absorption/weight gaining percentage ([5]; 120 h, listed as DB-2 hydrochloride): 0.76±0.06%
CCCCC(O)c1ccccc1C(=O)[O-].[Na+] (stereo not drawn) [sodium salt of 2-(α-hydroxypentyl)benzoic acid, reference compound] | – | – | – | – | – | – | – | – | can permeate the blood-brain barrier and enter the brain | – | – | – | – | – | – | 2.49±0.25% | blood concentration [3, 6]: 12.243 ± 1.847 µM; blood concentration [3, 7]: 0.547 ± 0.289 µM; contents in the heart, the lung and the brain ([4]; 4 h after administration): too low to be detected
